Where two headings read alike, the source gives them in different places.
Conditions: 8 mg/mL
[1] = 25 mM Tris, nominal pH 7.0, 2-8° C., three months
[2] = 25 mM Tris, nominal pH 7.0, 25° C., three months
[3] = 25 mM Tris, nominal pH 7.0, 40° C., three months
[4] = 25 mM Tris, nominal pH 7.0, −20° C., three months
[5] = 25 mM Tris, nominal pH 7.4, 2-8° C., three months
[6] = 25 mM Tris, nominal pH 7.4, 25° C., three months
[7] = 25 mM Tris, nominal pH 7.4, 40° C., three months
[8] = 25 mM Tris, nominal pH 7.4, −20° C., three months
[9] = 25 mM Tris, nominal pH 8.0, 2-8° C., three months
[10] = 25 mM Tris, nominal pH 8.0, 25° C., three months
[11] = 25 mM Tris, nominal pH 8.0, 40° C., three months
[12] = 25 mM Tris, nominal pH 8.0, −20° C., three months
[13] = 50 mM Tris, nominal pH 7.0, 2-8° C., three months
[14] = 50 mM Tris, nominal pH 7.0, 25° C., three months
[15] = 50 mM Tris, nominal pH 7.0, 40° C., three months
[16] = 50 mM Tris, nominal pH 7.0, −20° C., three months
[17] = 50 mM Tris, nominal pH 7.4, 2-8° C., three months
[18] = 50 mM Tris, nominal pH 7.4, 25° C., three months
[19] = 50 mM Tris, nominal pH 7.4, 40° C., three months
[20] = 50 mM Tris, nominal pH 7.4, −20° C., three months
[21] = 50 mM Tris, nominal pH 8.0, 2-8° C., three months
[22] = 50 mM Tris, nominal pH 8.0, 25° C., three months
[23] = 50 mM Tris, nominal pH 8.0, 40° C., three months
[24] = 50 mM Tris, nominal pH 8.0, −20° C., three months
[25] = 100 mM Tris, nominal pH 7.0, 2-8° C., three months
[26] = 100 mM Tris, nominal pH 7.0, 25° C., three months
[27] = 100 mM Tris, nominal pH 7.0, 40° C., three months
[28] = 100 mM Tris, nominal pH 7.0, t0
[29] = 100 mM Tris, nominal pH 7.0, −20° C., three months
[30] = 100 mM Tris, nominal pH 7.4, 2-8° C., three months
[31] = 100 mM Tris, nominal pH 7.4, 25° C., three months
[32] = 100 mM Tris, nominal pH 7.4, 40° C., three months
[33] = 100 mM Tris, nominal pH 7.4, t0
[34] = 100 mM Tris, nominal pH 7.4, −20° C., three months
[35] = 100 mM Tris, nominal pH 8.0, 2-8° C., three months
[36] = 100 mM Tris, nominal pH 8.0, 25° C., three months
[37] = 100 mM Tris, nominal pH 8.0, 40° C., three months
[38] = 100 mM Tris, nominal pH 8.0, t0
[39] = 100 mM Tris, nominal pH 8.0, −20° C., three months
[40] = 25, 50, 100 mM Tris, pH 7.0, 7.4, 8.0, −20° C. to 40° C., three months

## NS(=O)(=O)c1cc(C(=O)O)c(NCc2ccco2)cc1Cl [Furosemide, 4-chloro-2-(furan-2-ylmethylamino)-5-sulfamoyl-benzoic acid]
[1]
  Osmolality: 297 mOsm/kg H2O
  [Furosemide]: 8.01 mg/mL
  pH: 7.08
[2]
  Osmolality: 298 mOsm/kg H2O
  [Furosemide]: 7.91 mg/mL
  pH: 7.09
[3]
  Osmolality: 296 mOsm/kg H2O
  [Furosemide]: 7.89 mg/mL
  pH: 7.08
25 mM Tris, nominal pH 7.0, t0
  Osmolality: 293 mOsm/kg H2O
  [Furosemide]: 8.09 mg/mL
  pH: 7.02
[4]
  Osmolality: 296 mOsm/kg H2O
  [Furosemide]: 7.91 mg/mL
  pH: 7.07
[5]
  Osmolality: 291 mOsm/kg H2O
  [Furosemide]: 7.79 mg/mL
  pH: 7.49
[6]
  Osmolality: 289 mOsm/kg H2O
  [Furosemide]: 7.81 mg/mL
  pH: 7.47
[7]
  Osmolality: 290 mOsm/kg H2O
  [Furosemide]: 7.90 mg/mL
  pH: 7.47
25 mM Tris, nominal pH 7.4, t0
  Osmolality: 287 mOsm/kg H2O
  [Furosemide]: 8.00 mg/mL
  pH: 7.42
[8]
  Osmolality: 288 mOsm/kg H2O
  [Furosemide]: 7.92 mg/mL
  pH: 7.47
[9]
  Osmolality: 292 mOsm/kg H2O
  [Furosemide]: 7.97 mg/mL
  pH: 8.07
[10]
  Osmolality: 294 mOsm/kg H2O
  [Furosemide]: 7.76 mg/mL
  pH: 8.06
[11]
  Osmolality: 294 mOsm/kg H2O
  [Furosemide]: 7.99 mg/mL
  pH: 8.07
25 mM Tris, nominal pH 8.0, t0
  Osmolality: 289 mOsm/kg H2O
  [Furosemide]: 8.08 mg/mL
  pH: 8.04
[12]
  Osmolality: 291 mOsm/kg H2O
  [Furosemide]: 7.91 mg/mL
  pH: 8.06
[13]
  Osmolality: 294 mOsm/kg H2O
  [Furosemide]: 8.02 mg/mL
  pH: 7.10
[14]
  Osmolality: 290 mOsm/kg H2O
  [Furosemide]: 8.07 mg/mL
  pH: 7.10
[15]
  Osmolality: 295 mOsm/kg H2O
  [Furosemide]: 7.94 mg/mL
  pH: 7.12
50 mM Tris, nominal pH 7.0, t0
  Osmolality: 290 mOsm/kg H2O
  [Furosemide]: 8.06 mg/mL
  pH: 7.04
[16]
  Osmolality: 289 mOsm/kg H2O
  [Furosemide]: 8.12 mg/mL
  pH: 7.13
[17]
  Osmolality: 293 mOsm/kg H2O
  [Furosemide]: 8.10 mg/mL
  pH: 7.50
[18]
  Osmolality: 292 mOsm/kg H2O
  [Furosemide]: 7.87 mg/mL
  pH: 7.49
[19]
  Osmolality: 296 mOsm/kg H2O
  [Furosemide]: 7.97 mg/mL
  pH: 7.50
50 mM Tris, nominal pH 7.4, t0
  Osmolality: 289 mOsm/kg H2O
  [Furosemide]: 8.09 mg/mL
  pH: 7.44
[20]
  Osmolality: 292 mOsm/kg H2O
  [Furosemide]: 7.93 mg/mL
  pH: 7.52
[21]
  Osmolality: 296 mOsm/kg H2O
  [Furosemide]: 7.84 mg/mL
  pH: 8.10
[22]
  Osmolality: 296 mOsm/kg H2O
  [Furosemide]: 7.82 mg/mL
  pH: 8.09
[23]
  Osmolality: 289 mOsm/kg H2O
  [Furosemide]: 7.95 mg/mL
  pH: 8.10
50 mM Tris, nominal pH 8.0, t0
  Osmolality: 288 mOsm/kg H2O
  [Furosemide]: 8.14 mg/mL
  pH: 8.04
[24]
  Osmolality: 289 mOsm/kg H2O
  [Furosemide]: 7.93 mg/mL
  pH: 8.11
[25]
  Osmolality: 296 mOsm/kg H2O
  [Furosemide]: 7.89 mg/mL
  pH: 7.00
[26]
  Osmolality: 293 mOsm/kg H2O
  [Furosemide]: 7.79 mg/mL
  pH: 6.99
[27]
  Osmolality: 294 mOsm/kg H2O
  [Furosemide]: 7.87 mg/mL
  pH: 6.98
[28]
  Osmolality: 292 mOsm/kg H2O
  [Furosemide]: 8.04 mg/mL
  pH: 7.02
[29]
  Osmolality: 298 mOsm/kg H2O
  [Furosemide]: 7.90 mg/mL
  pH: 7.00
[30]
  Osmolality: 301 mOsm/kg H2O
  [Furosemide]: 7.95 mg/mL
  pH: 7.41
[31]
  Osmolality: 295 mOsm/kg H2O
  [Furosemide]: 7.82 mg/mL
  pH: 7.41
[32]
  Osmolality: 297 mOsm/kg H2O
  [Furosemide]: 7.90 mg/mL
  pH: 7.39
[33]
  Osmolality: 297 mOsm/kg H2O
  [Furosemide]: 8.17 mg/mL
  pH: 7.42
[34]
  Osmolality: 301 mOsm/kg H2O
  [Furosemide]: 7.92 mg/mL
  pH: 7.42
[35]
  Osmolality: 295 mOsm/kg H2O
  [Furosemide]: 7.91 mg/mL
  pH: 7.99
[36]
  Osmolality: 288 mOsm/kg H2O
  [Furosemide]: 7.79 mg/mL
  pH: 7.97
[37]
  Osmolality: 294 mOsm/kg H2O
  [Furosemide]: 7.79 mg/mL
  pH: 7.98
[38]
  Osmolality: 292 mOsm/kg H2O
  [Furosemide]: 8.08 mg/mL
  pH: 7.99
[39]
  Osmolality: 296 mOsm/kg H2O
  [Furosemide]: 7.89 mg/mL
  pH: 7.99
[40]
  change in furosemide concentration: no change
  change in osmolality: no change
  change in pH: no change
  change in visual appearance: no change
